Earlier results as cited in patent publication EP1964566A1, “PREPARATION WITH IMPROVED BIOABSORBABILITY OF SAPROPTERIN HYDROCHLORIDE” (Asubio Pharma Co., Ltd., priority 2005, dated 2007).

Settings: in vivo, po

Question: With sapropterin hydrochloride as the substance, how does the bioavailability read?
Answer: 1-2%
